# In patent publication US10442791B2, “DNA-PK inhibitors” (Vertex Pharmaceuticals Incorporated, priority 2012, dated 2019):
# Columns and labels:
# [1] = tested on: OD26749 NSCLC subcutaneous xenograft; assay: In vivo efficacy, primary OD26749 NSCLC subcutaneous xenograft model with whole body IR; set-up: species or system Nude mice; conditions: Days 19 and 26, Day 30 post implantation
# Method: The efficacy of compound 578 in vivo was evaluated in the primary OD26749 NSCLC subcutaneous xenograft model. This primary NSCLC tumor was obtained from a patient with a poorly differentiated adenocarcinoma and was serially passaged in SCID mice prior to this study. Nude mice were surgically implanted with 150-mg fragments of OD26749 tumor at passage 3 (P3). Whole body ionizing radiation (IR, 2 Gy/treatment) was administered using a dual Cesium 137 source and initiated when tumors reached approximately 350 mm^3. Tumor volumes were measured twice a week during the course of the study. Anti-tumor efficacy is expressed as % T/C (tumor/control) while regression is expressed as % T/Ti, the reduction in tumor volume compared to the starting tumor volume.
# Compound 578 [in 16% Captisol®+HPMC/PVP] was administered orally (b.i.d. at 0 and 4 hours) at 25, 50, 100 mg/kg and (q.d.) 200 mg/kg on Day 19 post implantation. A single 2-Gy dose of whole body IR was given 15 minutes after compound administration. Control animals were given vehicle orally b.i.d. (0 and 4 hours). On Day 26 post implantation, the same regimens were repeated.
# [2] = tested on: SW900; assay: Cell viability following irradiation (CellTiter-Glo), SW900; type: cell-based; conditions: SW900 (Lung Cancer), viability at 6 days
# Method: (§1) To evaluate the radiosensitizing effects of compounds of the invention in combination with ionizing radiation (IR), a broad panel of cell lines across multiple tumor types and genetic backgrounds were tested. Cells were incubated with DMSO or compound 578 for 30 minutes and then exposed to various doses of radiation (0, 0.5, 1, 2, 4, 6, 8, and 16 Gy). Cell viability was assessed at 6 days using CellTiter-Glo® (Promega, Inc).
# [3] = tested on: HT1080; assay: Cell viability following irradiation (CellTiter-Glo), HT1080; type: cell-based; conditions: HT1080 (Fibrosarcoma), viability at 6 days
# Method: as §1
# [4] = tested on: DLD-1; assay: Cell viability following irradiation (CellTiter-Glo), DLD-1; type: cell-based; conditions: DLD-1 (Colorectal Cancer), viability at 6 days
# Method: as §1
# [5] = tested on: H1299; assay: Cell viability following irradiation (CellTiter-Glo), H1299; type: cell-based; conditions: H1299 (Lung Cancer), viability at 6 days
# Method: as §1
# [6] = tested on: DU4475; assay: Cell viability following irradiation (CellTiter-Glo), DU4475; type: cell-based; conditions: DU4475 (Breast Cancer), viability at 6 days
# Method: as §1
# [7] = tested on: H2009; assay: Cell viability following irradiation (CellTiter-Glo), H2009; type: cell-based; conditions: H2009 (Lung Cancer), viability at 6 days
# Method: as §1
# [8] = tested on: PC3; assay: Cell viability following irradiation (CellTiter-Glo), PC3; type: cell-based; conditions: PC3 (Prostate Cancer), viability at 6 days
# Method: as §1
# [9] = tested on: MCF7; assay: Cell viability following irradiation (CellTiter-Glo), MCF7; type: cell-based; conditions: MCF7 (Breast Cancer), viability at 6 days
# Method: as §1
# [10] = tested on: LS411N; assay: Cell viability following irradiation (CellTiter-Glo), LS411N; type: cell-based; conditions: LS411N (Colorectal Cancer), viability at 6 days
# Method: as §1
# [11] = tested on: Miapaca2; assay: Cell viability following irradiation (CellTiter-Glo), Miapaca2; type: cell-based; conditions: Miapaca2 (Pancreatic cancer), viability at 6 days
# Method: as §1
# [12] = tested on: human fibroblast cell lines (HFL1, IMR90 and MRC5), ARPE19, NHBE, SAEC; assay: Cell viability following irradiation, normal cell lines; type: cell-based; conditions: exception: HS68
# Method: as §1
# [13] = tested on: PATU8889T; assay: Cell viability following irradiation (CellTiter-Glo), PATU8889T; type: cell-based; conditions: PATU8889T (Pancreatic cancer), viability at 6 days
# Method: as §1
# [14] = tested on: DBTRG-05MG; assay: Cell viability following irradiation (CellTiter-Glo), DBTRG-05MG; type: cell-based; conditions: DBTRG-05MG (Glioblastoma), viability at 6 days
# Method: as §1
# [15] = tested on: Colo-205; assay: Cell viability following irradiation (CellTiter-Glo), Colo-205; type: cell-based; conditions: Colo-205 (Colorectal Cancer), viability at 6 days
# Method: as §1
# [16] = tested on: U87MG; assay: Cell viability following irradiation (CellTiter-Glo), U87MG; type: cell-based; conditions: U87MG (Glioblastoma), viability at 6 days
# Method: as §1
# [17] = tested on: SNU449; assay: Cell viability following irradiation (CellTiter-Glo), SNU449; type: cell-based; conditions: SNU449 (Hepatocellular Carcinoma), viability at 6 days
# Method: as §1
# [18] = tested on: H460; assay: Cell viability following irradiation (CellTiter-Glo), H460; type: cell-based; conditions: H460 (Lung Cancer), viability at 6 days
# Method: as §1
# [19] = tested on: FaDu; assay: Cell viability following irradiation (CellTiter-Glo), FaDu; type: cell-based; conditions: FaDu (Head and Neck Squamous Cell Carcinoma), viability at 6 days
# Method: as §1
# [20] = tested on: A549; assay: Cell viability following irradiation (CellTiter-Glo), A549; type: cell-based; conditions: A549 (Lung Cancer), viability at 6 days
# Method: as §1
# [21] = tested on: DNA-PK null SCID mouse cell line; assay: Cell viability following irradiation (CellTiter-Glo), SCID; type: cell-based; conditions: for EC50 IR: SCID (SCID Tumor, DNA-PK null), viability at 6 days
# Method: as §1
# [22] = tested on: glioblastoma cell lines; assay: Cell viability following irradiation, glioblastoma cell lines; type: cell-based; conditions: generally less sensitive to radiation alone
# Method: as §1
structure (smiles),measurement,setting,value
"CNC(=O)c1ccnc2c([C@H](C)CNc3cc(-c4cnc(C)nc4)ncn3)cccc12 [Compound 578, (S)—N-methyl-8-(1-((2′-methyl-[4,5′-bipyrimidin]-6-yl)amino)propan-2-yl)quinoline-4-carboxamide]",% T/C (tumor growth inhibition),[1]; 25 mg/kg b.i.d. oral + 2 Gy whole body IR,25.6%
same,% T/C (tumor growth inhibition),[1]; 50 mg/kg b.i.d. oral + 2 Gy whole body IR,11.7%
same,% T/Ti (regression),"[1]; 100 mg/kg b.i.d. oral + 2 Gy whole body IR, P<0.001 compared to IR alone",−3.1%
same,% T/C (tumor growth inhibition),[1]; 200 mg/kg q.d. oral + 2 Gy whole body IR,6.5%
same,EC50 IR,[2]; compound 578 0.7 μM + IR,4.2 Gy
same,EC50 IR,[2]; compound 578 2.1 μM + IR,4.3 Gy
same,EC50 IR,[3]; compound 578 0.7 μM + IR,1.9 Gy
same,EC50 IR,[3]; compound 578 2.1 μM + IR,0.9 Gy
same,EC50 IR,[4]; compound 578 0.7 μM + IR,0.6 Gy
same,EC50 IR,[4]; compound 578 2.1 μM + IR,0.7 Gy
same,EC50 IR,[5]; compound 578 0.7 μM + IR,1.1 Gy
same,EC50 IR,[5]; compound 578 2.1 μM + IR,1.5 Gy
same,EC50 IR,[6]; compound 578 0.7 μM + IR,<0.5 Gy
same,EC50 IR,[6]; compound 578 2.1 μM + IR,<0.5 Gy
same,EC50 IR,[7]; compound 578 0.7 μM + IR,2.7 Gy
same,EC50 IR,[7]; compound 578 2.1 μM + IR,1.5 Gy
same,EC50 IR,[8]; compound 578 0.7 μM + IR,0.5 Gy
same,EC50 IR,[8]; compound 578 2.1 μM + IR,<0.5 Gy
same,EC50 IR,[9]; compound 578 0.7 μM + IR,4.9 Gy
same,EC50 IR,[9]; compound 578 2.1 μM + IR,3.3 Gy
same,EC50 IR,[10]; compound 578 0.7 μM + IR,2.3 Gy
same,EC50 IR,[10]; compound 578 2.1 μM + IR,1.9 Gy
same,EC50 IR,[11]; compound 578 0.7 μM + IR,2.4 Gy
same,EC50 IR,[11]; compound 578 2.1 μM + IR,1.9 Gy
same,radiosensitization,[12],only marginal radiosensitization
same,EC50 IR,[13]; compound 578 0.7 μM + IR,1.1 Gy
same,EC50 IR,[13]; compound 578 2.1 μM + IR,0.9 Gy
same,EC50 IR,[14]; compound 578 0.7 μM + IR,4.2 Gy
same,EC50 IR,[14]; compound 578 2.1 μM + IR,5 Gy
same,EC50 IR,[15]; compound 578 0.7 μM + IR,0.7 Gy
same,EC50 IR,[15]; compound 578 2.1 μM + IR,0.7 Gy
same,EC50 IR,[16]; compound 578 0.7 μM + IR,>16 Gy
same,EC50 IR,[16]; compound 578 2.1 μM + IR,>16 Gy
same,EC50 IR,[17]; compound 578 0.7 μM + IR,3.3 Gy
same,EC50 IR,[17]; compound 578 2.1 μM + IR,1.8 Gy
same,EC50 IR,[18]; compound 578 0.7 μM + IR,0.9 Gy
same,EC50 IR,[18]; compound 578 2.1 μM + IR,0.7 Gy
same,EC50 IR,[19]; compound 578 0.7 μM + IR,2 Gy
same,EC50 IR,[19]; compound 578 2.1 μM + IR,1.9 Gy
same,EC50 IR,[20]; compound 578 0.7 μM + IR,0.5 Gy
same,EC50 IR,[20]; compound 578 2.1 μM + IR,<0.5 Gy
same,EC50 IR,[21]; compound 578 0.7 μM + IR,2.8 Gy
same,EC50 IR,[21]; compound 578 2.1 μM + IR,3.1 Gy
same,effect on cell viability,"[21]; as a single agent or in combination with radiation, DNA-PK null SCID mouse cell line",minimal effect on cell viability
same,radiosensitization,[22],less radiosensitization
